Measurements reported in PubChem BioAssay AID2060349 (Molecular Pharmacology Branch, DTP, NCI, 2025).

Test system: 762968-020-R-J2-PDC spheroids viability
Assay: Anticancer human tumor 762968-020-R-J2-PDC patient-derived colon carcinoma cell line growth inhibition [TAK]
Settings: spheroids with HUVEC and MSC; for IC50: curve of first compound; for viability, T/C: stronger effect = lower value; active = viability on the fitted dose curve at most 10% of control; inactive = the rest
Source text: Combinatorial screen of targeted agents with TAK-243 and ipatasertib in multi-cell type tumor spheroids
A high-throughput screen of multi-cell type tumor spheroids was designed to identify active combinations of targeted small molecules and TAK-243 or ipatasertib. Complex spheroids include a stromal component modeled by human endothelial cells (HUVEC) and fibroblasts modeled by human mesenchymal stem cells (MSCs). The concentration ranges selected for each drug and investigational agent were based upon clinically achievable concentrations if the clinical Cmax of the agent was known.
Compounds. The drugs and investigational agents: TAK-243 (785004), ipatasertib (767898), everolimus (733504), selumetinib (741078), bortezomib (756655), trametinib (758246), ixazomib (758254), vemurafenib (761431), dabrafenib (764134), sapanisertib (764658), alpelisib (765974), and copanlisib (816437), were obtained from the National Cancer Institute (NCI) Developmental Therapeutics Program Chemical Repository. The FDA-approved anticancer drug set is available from the NCI Developmental Therapeutics Program. […] The stock solutions were prepared in dimethyl sulfoxide (DMSO, Sigma-Aldrich, St. Louis, MO, cat. D2650) at 800-fold the tested concentration and stored at -70 degrees C prior to their use. All drugs and investigational agents were tested over a range starting from a high concentration at or near the clinical Cmax and decreasing in half-log increments. If the clinical Cmax for an agent had not been determined, the highest concentration tested was 10 microM.
NCI60 Cell Culture. NCI60 cell lines were obtained from the NCI Developmental Therapeutics Program Tumor Repository. For each lot of cells, the Repository performed Applied Biosystems AmpFLSTR Identifiler testing with PCR amplification to confirm consistency with the published Identifier STR profile for each cell line. Cells were kept in continuous culture for no more than 20 passages. The optimal seeding densities for each of the cell lines at each time point assessed were determined prior to performing the concentration response studies. Briefly, the NCI60 human tumor lines were grown as monolayers in RPMI 1640 medium supplemented with 10% FBS and 2 mmol/L L-glutamine.
An additional 2 lines were from the NCI60 cell line panel including melanomas, MALME-3M and SK-MEL-2. Pooled donor human umbilical vein endothelial cells (HUVEC, Lonza, cat. CC-2519) and human mesenchymal stem cells (hMSC, Lonza, cat. PT-2501) were purchased from Lonza (Walkersville, MD).
PDMR cell lines were grown in complete medium (DC medium): Dulbecco's modified Eagle's medium (DMEM)/F12 supplemented with 5% fetal bovine serum (FBS), 2 mM L-glutamine, 100 U/mL penicillin and 100 µg/ml streptomycin, 0.4 µg/ml hydrocortisone, 10 ng/ml epidermal growth factor (EGF) recombinant human protein, 24 µg/mL adenine, and 0.1 mg/mL primocin. During culture from frozen stock vials, PDMR cells were cultured in the same medium containing 10 µM Y-27632 (see Table 3). The PDCs were cultured in complete DMEM/F12 media without 10 microM Y-27632 dihydrochloride for at least two passages prior to the screen. The pooled donor HUVEC and hMSC were cultured in endothelial cell growth medium 2 (PromoCell, Heidelberg, Germany, cat. C-22011) and mesenchymal stem cell growth medium 2 (PromoCell, cat. C-28009), respectively. For all experiments, HUVEC and hMSC were used at passages </=5.
For the pre-screen, cell seeding densities were determined from a titration spanning the range from 5,000 to 313 cells per well. The mct-spheroids including 60% malignant cells, 25% HUVEC and 15% MSC dispensed as a mixture into U-bottom Ultra-Low Attachment 384-well plates (Corning, NY)
High-throughput Drug Combination Screening.
Prior to their inoculation into 384-well plates, malignant cells, HUVEC, and hMSC were removed from T flasks using TrypLE express (Thermo Fisher Scientific, cat. 12605036) and harvested by centrifugation for 5 min at 233 x g. […]
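Also: spheroids exposed to drug for 7 days before readout.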

Cn1cnc2c(F)c(Nc3ccc(Br)cc3Cl)c(C(=O)NOCCO)cc21 + CC(C)NCC(C(=O)N1CCN(c2ncnc3c2C(C)CC3O)CC1)c1ccc(Cl)cc1
> 3000 nM: IC50 (second compound 0.949 µM) | IC50 (second compound 3 µM) | IC50 (second compound 9.49 µM) | IC50 (second compound 30 µM)
2350 nM: IC50 (second compound 0.3 µM)
inactive: viability, T/C (second compound 0.3 µM, first compound 0.00949 µM) 94.6% | viability, T/C (second compound 0.3 µM, first compound 0.03 µM) 95.5% | viability, T/C (second compound 0.3 µM, first compound 0.0949 µM) 89.6% | viability, T/C (second compound 0.3 µM, first compound 0.3 µM) 84.2% | viability, T/C (second compound 0.3 µM, first compound 0.949 µM) 69.9% | viability, T/C (second compound 0.3 µM, first compound 3 µM) 44.5% | viability, T/C (second compound 0.949 µM, first compound 0.00949 µM) 103% | viability, T/C (second compound 0.949 µM, first compound 0.03 µM) 97.5% | viability, T/C (second compound 0.949 µM, first compound 0.0949 µM) 87% | viability, T/C (second compound 0.949 µM, first compound 0.3 µM) 83.4% | viability, T/C (second compound 0.949 µM, first compound 0.949 µM) 74.8% | viability, T/C (second compound 0.949 µM, first compound 3 µM) 50.5% | viability, T/C (second compound 3 µM, first compound 0.00949 µM) 106% | viability, T/C (second compound 3 µM, first compound 0.03 µM) 97.7% | viability, T/C (second compound 3 µM, first compound 0.0949 µM) 95.2% | viability, T/C (second compound 3 µM, first compound 0.3 µM) 85.8% | viability, T/C (second compound 3 µM, first compound 0.949 µM) 72.2% | viability, T/C (second compound 3 µM, first compound 3 µM) 58.4% | viability, T/C (second compound 9.49 µM, first compound 0.00949 µM) 96.5% | viability, T/C (second compound 9.49 µM, first compound 0.03 µM) 83.7% | viability, T/C (second compound 9.49 µM, first compound 0.0949 µM) 80.6% | viability, T/C (second compound 9.49 µM, first compound 0.3 µM) 79.1% | viability, T/C (second compound 9.49 µM, first compound 0.949 µM) 66.3% | viability, T/C (second compound 9.49 µM, first compound 3 µM) 55.8% | viability, T/C (second compound 30 µM, first compound 0.00949 µM) 82.7% | viability, T/C (second compound 30 µM, first compound 0.03 µM) 85.3% | viability, T/C (second compound 30 µM, first compound 0.0949 µM) 83.2% | viability, T/C (second compound 30 µM, first compound 0.3 µM) 79% | viability, T/C (second compound 30 µM, first compound 0.949 µM) 70.5% | viability, T/C (second compound 30 µM, first compound 3 µM) 57.8%

CC(C)CC(NC(=O)C(Cc1ccccc1)NC(=O)c1cnccn1)B(O)O (stereo not given) + CC(C)NCC(C(=O)N1CCN(c2ncnc3c2C(C)CC3O)CC1)c1ccc(Cl)cc1
> 10 nM: IC50 (second compound 0.3 µM) | IC50 (second compound 0.949 µM) | IC50 (second compound 3 µM) | IC50 (second compound 9.49 µM) | IC50 (second compound 30 µM)
inactive: viability, T/C (second compound 0.3 µM, first compound 31.6 pM) 101% | viability, T/C (second compound 0.3 µM, first compound 0.0001 µM) 101% | viability, T/C (second compound 0.3 µM, first compound 0.000316 µM) 108% | viability, T/C (second compound 0.3 µM, first compound 0.001 µM) 102% | viability, T/C (second compound 0.3 µM, first compound 0.00316 µM) 98.3% | viability, T/C (second compound 0.3 µM, first compound 0.01 µM) 98.1% | viability, T/C (second compound 0.949 µM, first compound 31.6 pM) 103% | viability, T/C (second compound 0.949 µM, first compound 0.0001 µM) 102% | viability, T/C (second compound 0.949 µM, first compound 0.000316 µM) 96.1% | viability, T/C (second compound 0.949 µM, first compound 0.001 µM) 100% | viability, T/C (second compound 0.949 µM, first compound 0.00316 µM) 105% | viability, T/C (second compound 0.949 µM, first compound 0.01 µM) 85.5% | viability, T/C (second compound 3 µM, first compound 31.6 pM) 108% | viability, T/C (second compound 3 µM, first compound 0.0001 µM) 109% | viability, T/C (second compound 3 µM, first compound 0.000316 µM) 106% | viability, T/C (second compound 3 µM, first compound 0.001 µM) 98.8% | viability, T/C (second compound 3 µM, first compound 0.00316 µM) 106% | viability, T/C (second compound 3 µM, first compound 0.01 µM) 89% | viability, T/C (second compound 9.49 µM, first compound 31.6 pM) 98.5% | viability, T/C (second compound 9.49 µM, first compound 0.0001 µM) 98.7% | viability, T/C (second compound 9.49 µM, first compound 0.000316 µM) 99.3% | viability, T/C (second compound 9.49 µM, first compound 0.001 µM) 104% | viability, T/C (second compound 9.49 µM, first compound 0.00316 µM) 98.9% | viability, T/C (second compound 9.49 µM, first compound 0.01 µM) 97.5% | viability, T/C (second compound 30 µM, first compound 31.6 pM) 87.7% | viability, T/C (second compound 30 µM, first compound 0.0001 µM) 91.9% | viability, T/C (second compound 30 µM, first compound 0.000316 µM) 87.4% | viability, T/C (second compound 30 µM, first compound 0.001 µM) 85.4% | viability, T/C (second compound 30 µM, first compound 0.00316 µM) 95.3% | viability, T/C (second compound 30 µM, first compound 0.01 µM) 87.2%
